The subject of one test is OIR mouse model. Put plainly: Oxygen-induced retinopathy (OIR) mouse model, retinal flatmounts at P17. It is filed as in vivo. The conditions noted are these: OIR pups, two 90 mpk intraperitoneal doses (P12 and P14), read at P17 (FIG. 14A, 15B). An excerpt: The OIR model is based on the exposure of mouse pups to hyperoxia during a phase when their retinal vasculature is still developing. This leads to capillary depletion, and upon return to room air, results in retinal ischemia and proliferative vascular disease in the retinal vasculature or oxygen-induced retinopathy.
C57BL/6J pups at postnatal day 7 (P7) are housed in a hyperoxic chamber (75% O2) for 5 days (n=10 per cage) leading to vessel regression in the center of the retina. CD-1 fostering mothers are rotated before and 2-3 days after entering the chamber. […]
Retinas are dissected and incubated overnight with rhodamine-labeled lectin from Bandeiraea simplicifolia (Griffonia simplicifolia) (1:100) in 1 mM CaCl2) in PBS to visualize vaso-obliterated (VO) or neovascular (NV) areas. […] Images can be analyzed on Visiopharm® to determine % VO or % NV of total retina. […]
Avascular areas and areas of neovascularization were quantified after harvest and staining of retinal flatmounts at P17 in the model.
OIR pups were treated with intraperitoneal injection of 90 mpk Compound 39 at P12, then these pups were removed to room air with their nursing mothers, repeat dosed at P14, and were sacrificed at P17. […] To determine avascular or neovascular areas, retinas were flatmounted, and stained with isolectin B4 (IB4) for fluorescence microscopy. […]

Test [1] relates to ATF4 protein expression in retina. Put plainly: Retinal ATF4 protein immunoblot after IP dosing, adult retinas. It is filed as in vivo, mouse. As to conditions: IP 30 and 60 mpk, adult retinas 4 hours post administration, immunoblot vs Actinin (FIG. 11C). The method, then: Intraperitoneally administered Compound 39 activated ATF4 protein expression at 30 and 60 mpk. Adult eye retinas were dissected 4 hours post Compound 39 administration and the harvested samples were kept on ice and homogenized using Precellys™ (500 μL tubes) tissue homogenizer in 300 μL MSD Tris Lysis buffer containing Pierce Protease Inhibitor Complete Mini tablet (ThermoScientific™ A32963). Homogenized samples were then centrifuged to separate supernatant from debris. Lysates were separated by SDS-PAGE and immunoblotted for ATF4 (D4B8) and control protein Actinin (Cell Signaling, cat. 3134S).
In general terms: In western blotting, separated proteins are transferred to a membrane and probed.

Molecules are shown by their SMILES. “Also recorded” adds a separate entry of the source.

As for `CNc1nc2ccc(-c3c(C)ccc(C(=O)c4c(-c5ccccc5)n(C)n(-c5ccccc5)c4=O)c3N)cc2s1` [Compound 39, 4-(2-Amino-4-methyl-3-(2-(methylamino)benzo[d]thiazol-6-yl)benzoyl)-1-methyl-2,5-diphenyl-1H-pyrazol-3(2H)-one], the neovascularization result with OIR mouse model was “significant reversal; also recorded: significantly suppressed”. In addition, the “levels of ATF4 protein in retina” value in test [1] is recorded as “increased”.

These data come from patent US20240245680A1, “Methods of Treating Retinal Vasculopathies” (Unity Biotechnology, Inc., priority 2021, published 2024).
